Laboratory results published in patent EP4043466B1, “PRC2 INHIBITORS” (Mirati Therapeutics, Inc., priority 2018, dated 2019).
pIC50: −log10 of the molar value.

How the values were obtained:
[1] = tested on: PRC2-mediated histone H3 methylation; test: Tri-Methyl Histone H3 (Lys 27) Sandwich ELISA in Pfeiffer cells: inhibition of PRC2-mediated histone H3 methylation; assay type: cell-based, human; conditions: Homo sapiens; Inhibition of EZH2-mediated histone H3 trimethylation; Pfeiffer cells (EZH2 A677G), 96 hours incubation
Description: The Pfeiffer cell line was established from a […] from a patient having metastatic diffuse large B-cell lymphoma (DLBCL). This cell line expresses a mutant form of the EZH2 enzyme (A677G) that results in enhanced EZH2 activity leading to increased methylation of histone H3 Lys27. Increased trimethylation of histone H3 Lys27 is believed to be implicated in tumorgenesis and poor clinical prognosis in lymphomas (McCabe et al., (2012) Nature 492:108-112).
Inhibition of PRC2-mediated histone H3 methylation by compounds of Formula (I) was measured by ELISA using a Tri-Methyl Histone H3 (Lys 27) Sandwich ELISA Kit (Cell Signaling Tech #7866C) in accordance with the manufacturer's instructions. Briefly, Pfeiffer cells were cultured in RPMI medium supplemented with 10% fetal bovine serum and 1% penicillin and 1% streptomycin in 96 well culture plates at 37°C to a density of 8000 cells/90µl/well and the cells were harvested. A series of 3-fold serial dilutions of each test compound of Formula (I) were prepared in RPMI medium and added to the cells at final concentrations ranging from 1µM to 0.15 nM. The plates were incubated at 37°C for 96 hours.
After incubation, the cells were pelleted by centrifugation in a pre-cooled 4°C rotor at 1, 100 rpm for 10 min and the supernatant was removed by aspiration. The cell pellet was resuspended in 55µl of Lysis Buffer (0.4M HCl) and incubated on ice with periodic shaking for 30 minutes. The lysed cells were subjected to centrifugation at 4, 200 rpm for 10 min at 4°C and the supernatant containing acid-soluble proteins was collected and the remainder discarded. The acid-soluble proteins were brought to a neutral pH by the addition of 20 µl of Neutralization Buffer (1 M Sodium phosphate, dibasic (pH 12.5), 2.5 mM DTT and 1 mM PMSF) and the neutralized lysates were analyzed by ELISA.
A 65 µl aliquot of each cell lysate was added to a well of a microwell strip, the microwells were sealed using tape and incubated either at 37°C for two hours or at 4°C overnight. After incubation, the tape was removed at the microwells were washed four times using 200 µl of 1X Wash Buffer. To each washed microwell, a 100 µl aliquot of an antitrimethyl histone H3 Lys27 Detection Antibody solution was added and the microwells were incubated at 37°C for one hour. The Detection Antibody solution was removed by aspiration and the wells were washed four times each using 200 µl of 1X Wash Buffer.
A 100 µl aliquot of an HRP-linked secondary antibody was added to each well, the wells were sealed with tape and incubated at 37°C for 30 min. The HRP-linked secondary antibody solution was removed by aspiration and the wells were washed four times using 200 µl of 1X Wash Buffer. A 100 µl aliquot of a TMB substrate was added to each well, the wells were sealed with tape and incubated at 37°C for 10 min or 25°C for 30 min. The reaction was stopped by the addition of 100 µl aliquot of a STOP solution and the plate was shaken briefly. The degree of histone H3 trimethylation was determined using a spectrophotometric readout by measuring the absorbance at 450 nm and then calculating the amount of trimethylated histone H3. A = ≤100 nM; B = >100 nM - ≤500 nM; C = >500 nM and N.D. = not determined.

[2] = target: purified human, His-tagged PRC2 complex (Homo sapiens, UniProt O75530+Q15910); test: Hot Spot HMT assay: inhibition of PRC2 enzymatic activity (transfer of tritiated methyl from SAM to core histone, filter binding); assay type: biochemical; conditions: Inhibition of PRC2-mediated enzymatic activity; 10 nM PRC2 complex, 0.05 mg/ml core histone H3, 1 uM 3H-SAM, 1 hr at 30°C
Procedure, shortened: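 Serial compound dilutions starting at 1.0 µM were pre-incubated 20 min at 30°C with 10 nM complex (His-EZH2, Flag-EED, His-SUZ12, His-AEBP2, His-RbAp48) and 0.05 mg/ml core H3. Reaction ran 1 hr at 30°C after adding 1 uM [3H]-SAM; scintillation counting followed filtration.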

Karpas 422 cells = test: Karpas 422 cell viability, CTG (Cell Titre Glo) assay; assay type: cell-based, human; conditions: Homo sapiens; Inhibition of proliferation of Karpas 422 cells (EZH2 Y641N); viability measured Day 4, Day 7 or Day 11, time point of the tabulated values not stated
Procedure, shortened: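 CellTiter-Glo viability IC50s taken at Day 4, Day 7 and Day 11 of continuous compound exposure (3-fold series, 10µM top, 1.5nM lowest) in RPMI/20% FBS at 37 °C. Y641N-mutant EZH2 lymphoma line seeded at 1000 cells per well; medium and compound replaced on Day 7 for Day 11 read.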

Chain of purified human, His-tagged PRC2 complex (Q15910 whole entry): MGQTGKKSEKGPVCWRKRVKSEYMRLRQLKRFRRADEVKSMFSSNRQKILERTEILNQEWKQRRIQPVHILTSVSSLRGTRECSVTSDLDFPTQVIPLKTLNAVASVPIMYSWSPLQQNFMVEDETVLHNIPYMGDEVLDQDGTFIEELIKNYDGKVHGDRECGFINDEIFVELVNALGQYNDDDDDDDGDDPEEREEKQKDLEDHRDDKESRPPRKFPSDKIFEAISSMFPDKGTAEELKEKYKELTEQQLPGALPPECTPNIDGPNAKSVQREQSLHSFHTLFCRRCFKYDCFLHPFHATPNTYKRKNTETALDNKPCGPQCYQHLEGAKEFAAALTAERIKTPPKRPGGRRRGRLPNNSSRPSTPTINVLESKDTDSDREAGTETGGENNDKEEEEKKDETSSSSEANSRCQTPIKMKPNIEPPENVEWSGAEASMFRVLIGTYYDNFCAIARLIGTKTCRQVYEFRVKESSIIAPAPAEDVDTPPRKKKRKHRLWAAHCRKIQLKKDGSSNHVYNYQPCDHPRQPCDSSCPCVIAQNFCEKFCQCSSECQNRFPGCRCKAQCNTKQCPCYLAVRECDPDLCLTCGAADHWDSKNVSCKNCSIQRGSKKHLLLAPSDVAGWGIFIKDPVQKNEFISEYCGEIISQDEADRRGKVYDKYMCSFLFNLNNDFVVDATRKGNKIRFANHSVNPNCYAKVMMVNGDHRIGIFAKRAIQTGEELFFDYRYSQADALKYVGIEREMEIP
Chain of purified human, His-tagged PRC2 complex (O75530 whole entry): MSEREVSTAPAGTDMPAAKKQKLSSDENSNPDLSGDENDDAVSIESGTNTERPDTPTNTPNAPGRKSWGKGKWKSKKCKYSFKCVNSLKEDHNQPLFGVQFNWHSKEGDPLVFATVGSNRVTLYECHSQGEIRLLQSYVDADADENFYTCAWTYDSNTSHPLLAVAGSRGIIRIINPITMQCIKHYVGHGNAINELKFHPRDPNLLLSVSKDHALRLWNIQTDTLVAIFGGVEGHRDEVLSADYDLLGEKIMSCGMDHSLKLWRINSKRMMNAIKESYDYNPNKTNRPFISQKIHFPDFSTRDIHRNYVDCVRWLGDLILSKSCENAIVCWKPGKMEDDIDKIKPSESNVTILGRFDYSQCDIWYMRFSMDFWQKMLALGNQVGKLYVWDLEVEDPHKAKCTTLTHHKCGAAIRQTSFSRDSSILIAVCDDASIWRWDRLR
Chain of purified human, His-tagged PRC2 complex (Q15022 whole entry partner): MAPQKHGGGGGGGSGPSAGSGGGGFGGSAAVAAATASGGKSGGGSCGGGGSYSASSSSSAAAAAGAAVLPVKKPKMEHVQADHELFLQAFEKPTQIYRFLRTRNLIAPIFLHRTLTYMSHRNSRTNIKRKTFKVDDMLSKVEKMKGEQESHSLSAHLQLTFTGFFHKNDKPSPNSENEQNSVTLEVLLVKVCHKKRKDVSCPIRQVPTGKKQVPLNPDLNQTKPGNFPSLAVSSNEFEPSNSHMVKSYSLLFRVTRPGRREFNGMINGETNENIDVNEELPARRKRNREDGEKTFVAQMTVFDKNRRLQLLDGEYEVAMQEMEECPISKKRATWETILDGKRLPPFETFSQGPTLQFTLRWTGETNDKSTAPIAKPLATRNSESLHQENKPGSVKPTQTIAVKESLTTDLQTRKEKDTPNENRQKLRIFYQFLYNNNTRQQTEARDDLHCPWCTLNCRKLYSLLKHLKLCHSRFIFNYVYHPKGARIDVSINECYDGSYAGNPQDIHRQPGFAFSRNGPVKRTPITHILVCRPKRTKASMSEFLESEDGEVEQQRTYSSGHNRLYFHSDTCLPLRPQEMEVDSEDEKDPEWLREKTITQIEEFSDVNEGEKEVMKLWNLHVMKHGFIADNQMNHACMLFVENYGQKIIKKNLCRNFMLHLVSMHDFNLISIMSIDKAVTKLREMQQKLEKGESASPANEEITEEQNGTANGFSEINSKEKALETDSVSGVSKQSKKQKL
Chain of purified human, His-tagged PRC2 complex (Q6ZN18 whole entry partner): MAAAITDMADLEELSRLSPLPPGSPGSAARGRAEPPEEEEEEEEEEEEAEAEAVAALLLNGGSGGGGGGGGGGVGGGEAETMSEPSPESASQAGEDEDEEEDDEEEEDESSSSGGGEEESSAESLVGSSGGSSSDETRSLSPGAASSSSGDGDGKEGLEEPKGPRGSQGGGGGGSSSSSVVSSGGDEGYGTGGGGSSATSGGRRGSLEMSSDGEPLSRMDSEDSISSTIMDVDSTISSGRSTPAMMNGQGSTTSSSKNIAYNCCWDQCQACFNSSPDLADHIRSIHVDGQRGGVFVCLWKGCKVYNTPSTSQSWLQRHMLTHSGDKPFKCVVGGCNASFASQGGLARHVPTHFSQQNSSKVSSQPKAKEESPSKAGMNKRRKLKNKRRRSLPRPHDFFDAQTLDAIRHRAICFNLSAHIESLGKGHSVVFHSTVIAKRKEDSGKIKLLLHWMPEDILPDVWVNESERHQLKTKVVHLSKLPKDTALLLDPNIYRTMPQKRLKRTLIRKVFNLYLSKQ
Chain of purified human, His-tagged PRC2 complex (Q09028 whole entry partner): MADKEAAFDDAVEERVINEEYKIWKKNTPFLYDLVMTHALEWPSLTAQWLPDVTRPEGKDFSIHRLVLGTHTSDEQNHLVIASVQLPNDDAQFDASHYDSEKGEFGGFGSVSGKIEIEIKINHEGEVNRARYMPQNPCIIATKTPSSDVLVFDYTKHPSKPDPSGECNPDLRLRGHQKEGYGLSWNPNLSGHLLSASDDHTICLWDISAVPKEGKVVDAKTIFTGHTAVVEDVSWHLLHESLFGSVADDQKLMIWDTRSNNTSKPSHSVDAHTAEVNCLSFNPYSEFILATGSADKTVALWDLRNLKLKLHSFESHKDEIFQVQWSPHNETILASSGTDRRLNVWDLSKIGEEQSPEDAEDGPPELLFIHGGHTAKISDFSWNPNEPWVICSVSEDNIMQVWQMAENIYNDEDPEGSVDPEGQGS

| Compound | pIC50 [1] | pIC50 [2] | pIC50 (Karpas 422 cells) |
| --- | --- | --- | --- |
| Cc1cc(-c2cnc(NCc3c(F)ccc4c3CCO4)n3cc(C#N)nc23)ccc1CN(C)C [Example 200, 8-(4-((dimethylamino)methyl)-3-methylphenyl)-5-(((5-fluoro-2,3-dihydrobenzofuran-4-yl)methyl)amino)imidazo[1,2-c]pyrimidine-2-carbonitrile] | 6.30 to 7.00 | 6.30 to 7.00 | ≥ 6.60 |
| CN(C)C(=O)c1ccc(-c2cnc(NCc3c(F)ccc4c3CCO4)n3cc(C#N)nc23)cc1F [Example 36, 4-(2-cyano-5-(((5-fluoro-2,3-dihydrobenzofuran-4-yl)methyl)amino)imidazo[1,2-c]pyrimidin-8-yl)-2-fluoro-N,N-dimethylbenzamide] | ≥ 7.00 | > 7.00 | ≥ 6.60 |
| Cc1cc(-c2cnc(NCc3c(F)ccc4sccc34)n3cc(C#N)nc23)n(C)n1 [Example 81, 8-(1,3-dimethyl-1H-pyrazol-5-yl)-5-(((5-fluorobenzo[b]thiophen-4-yl)methyl)amino)imidazo[1,2-c]pyrimidine-2-carbonitrile] | < 6.30 | < 6.30 | < 6.30 |
| Cc1cc(C2CCCN2)ccc1-c1cnc(NCc2c(F)ccc3c2CCO3)n2cc(C#N)nc12 (single isomer, unassigned) [Example 213, 5-(((5-fluoro-2,3-dihydrobenzofuran-4-yl)methyl)amino)-8-(2-methyl-4-(pyrrolidin-2-yl)phenyl)imidazo[1,2-c]pyrimidine-2-carbonitrile] | 6.30 to 7.00 | – | ≥ 6.60 |
| Cn1nc(C(=O)N2CCOCC2)cc1-c1cnc(NCc2c(F)ccc3c2CCO3)n2cc(C#N)nc12 [Example 209, 5-(((5-fluoro-2,3-dihydrobenzofuran-4-yl)methyl)amino)-8-(1-methyl-3-(morpholine-4-carbonyl)-1H-pyrazol-5-yl)imidazo[1,2-c]pyrimidine-2-carbonitrile] | ≥ 7.00 | – | ≥ 6.60 |
| Cc1ncccc1-c1cnc(NCc2c(F)ccc3c2CCO3)n2cc(C(=O)O)nc12 [Example 2, 5-(((5-fluoro-2,3-dihydrobenzofuran-4-yl)methyl)amino)-8-(2-methylpyridin-3-yl)imidazo[1,2-c]pyrimidine-2-carboxylic acid] | < 6.30 | – | < 6.30 |
| N#Cc1cn2c(NCc3c(F)ccc4c3CCO4)ncc(-c3ccc(CN4CC(O)C4)cc3)c2n1 [Example 150, 5-(((5-fluoro-2,3-dihydrobenzofuran-4-yl)methyl)amino)-8-(4-((3-hydroxyazetidin-1-yl)methyl)phenyl)imidazo[1,2-c]pyrimidine-2-carbonitrile] | ≥ 7.00 | > 7.00 | – |
| N#Cc1cn2c(NCc3c(F)ccc4c3CCO4)ncc(-c3cnn4c3CCC4)c2n1 [Example 80, 8-(5,8-dihydro-4H-pyrrolo[1,2-b]pyrazol-3-yl)-5-(((5-fluoro-2,3-dihydrobenzofuran-4-yl)methyl)amino)imidazo[1,2-c]pyrimidine-2-carbonitrile] | 6.30 to 7.00 | > 7.00 | – |
| Cn1cc(-c2cnc(NCc3c(F)ccc4c3CCO4)n3cc(C#N)nc23)c(C#N)n1 [Example 224, 8-(3-cyano-1-methyl-1H-pyrazol-4-yl)-5-(((5-fluoro-2,3-dihydrobenzofuran-4-yl)methyl)amino)imidazo[1,2-c]pyrimidine-2-carbonitrile] | 6.30 to 7.00 | 6.30 to 7.00 | – |
| N#Cc1cn2c(NCc3c(F)ccc4c3CCO4)ncc(-c3ccccc3)c2n1 [Example 46, 5-(((5-fluoro-2,3-dihydrobenzofuran-4-yl)methyl)amino)-8-phenylimidazo[1,2-c]pyrimidine-2-carbonitrile] | 6.30 to 7.00 | > 7.00 | – |
| Cc1cc(-c2cnc(NCc3c(F)ccc4c3CCO4)n3cc(C(=O)O)nc23)n(C)n1 [Example 1, 8-(1,3-dimethyl-1H-pyrazol-5-yl)-5-(((5-fluoro-2,3-dihydrobenzofuran-4-yl)methyl)amino)imidazo[1,2-c]pyrimidine-2-carboxylic acid] | < 6.30 | – | < 6.30 |
